Assays:
LPC-demyelinated mice = experiment: Lysolecithin (LPC)-induced focal demyelination of the spinal cord in mice; format: in vivo, mouse
Method: 12-week-old C57BL/6 male mice were anaesthetized using isoflurane and a laminectomy was performed. […] of 1% LPC was infused into the dorsal column between T11 and T12 spinal cord at a rate of 0.25 μl/min. The needle was removed after a delay of 5 min to minimize back flow and the lesion closed. […] The mice were euthanized at day 7, 14 and 21 after the laminectomy separately. Spinal cords were dissected for further western blot, histology and ultrastructural analysis. Control animals received an equivalent injection of saline, and tissues were collected according to the same paradigm. […] Lesion sizes were determined by staining of serial sections with eriochrome cyanine staining.
For spinal cord sections, 20 μm coronal sections were incubated in LFB solution in 56° C. overnight and then rinsed sequentially with 95% alcohol and distilled water. The sections were then in 0.1% lithium carbonate solution and followed dehydration with a series of gradated ethanol, cleared with Histoclear and mounted. A set of serial matched sections were imaged and analyzed. Images (5 to 6 sections/animal) were captured under light microscope. The demyelinated areas (lack of LFB staining) were quantified using ImageJ software. For EAE sections, demyelinated areas were measured and represented as a percentage of total area of spinal cord. For sections of LPC model, lesion volumes were calculated by the lesion area from serial sections throughout the entire lesion based on the equation for volume of cylinder (V=lesion area×length of lesion).
Mice were anesthetized with avertin and perfusion with PBS and 4% paraformaldehyde (PFA). Brain or spinal cord were dissected and post-fixed in 4% PFA overnight at 4° C. and equilibrated in 20% sucrose. 20 μm-thick sections were pretreated with Reveal Decloaker Solution (RV 1000M, Biocare Medical) for antigen retrieval according to the manufacturer's instructions. […] For each staining, at least 3 individual animals/group were examined and images were captured with a Leica DFC500 fluorescence microscope. Staining was quantified using Image J software (US National Instisutes of Health, USA). Fluorescence intensity was calculated as percentages of the mean value of the naïve controls.
For ultrastructural analyses of myelination, anesthetized animals were perfused with 2% glutaraldehyde/4% paraformaldehyde in 0.1 M sodium carcodylate buffer, PH7.4 (Electron Microscopy Sciences). Lesioned areas of the LPC or EAE-induced spinal cords from ISP-treated or control animals were dissected and post-fixed in 1% OsO4 for 2 hrs. Coronal sections ([…]) of spinal cord or brain containing corpus callosum were prepared (Leica, Vibratome), dehydrated, stained with saturated uranyl acetate and embedded in a Poly/Bed812 resin (Polysciences Inc.). The 1 μm-thick sections were cut and stained with toluidine blue, and matched areas were selected for EM analysis. For ultrastructure analysis, ultrathin sections (0.1 μm) were cut and visualized using an electron microscope (JEOL100CX) at 80 kV. G-ratios were calculated from at least 50-100 randomly selected myelinated axons by measuring the myelin thickness of the inner and outer diameter of the myelin sheath.

aggrecan (CS56) = experiment: CSPG degradation by OPC conditioned media (CS56 spot quantification and western blot of aggrecan); format: cell-based, mouse
Method: CSPG gradients were prepared as described previously (Tom, V. J., et al. Studies on the Development and Behavior of the Dystrophic Growth Cone, the Hallmark of Regeneration Failure, in an In vitro Model of the Glial Scar and after Spinal Cord Injury.). 24-well glass coverslip were coated with poly-L-lysine and nitrocellulose, and a mixture of 700 μg/mL aggrecan (A1960 Sigma) and 10 μg/mL laminin (11243217001 Sigma) spotted on the coated coverslip. After drying, coated coverslips were then incubated with laminin at 37° C. for 3h. Purified OPCs were plated at a density of 10,000/coverslip and cultured in DMEM/F12 medium containing with N2, PDGF (20 ng/ml), FGF (20 ng/ml), NT-3 (5 ng/ml), CNTF (O1 ng/ml), Glutamine (200 mM). Coverslips were stained with CS-56 (C8035, Sigma, 1:500) and O4 antibodies (Hybridoma Core Cleveland Clinic, 1:10). O4-positive cells crossing the aggrecan border were counted for each spot. For CSPG gradient quantification, 1×10^6 OPCs were plated per well on PLL, 1 μg/mL laminin, and 2 μg/mL aggrecan coated 6-well plates. OPCs treated with vehicle, 2.5 μM ISP, or 2.5 μM SISP for 2 days at 37° C. CM was harvested and incubated with freshly made spots. Spots were incubated with CM for 2 days at 37° C. then stained with CS-56 and laminin (L9393, Sigma, 1:1000) antibodies and consistently imaged. Using ImageJ software (NIH), pixel intensities of the CS-56 or laminin spot rims were quantified using the same ROI. For cultured spinal cord explant, the spinal cords of cervical and thoracic of P1 mouse pups were chopped into 1-2 mm tissue pieces and transferred to the coverslip. Explants were cultured in DMEM/F12 medium with 15% FBS (Hyclone), O1 ng/ml PDGF (Sigma) and N2 supplement (Invitrogen). For ISP treatment, 2.5 uM ISP was added to the media at the time of plating. 25 μM GM6001 (2983, Tocris), 100 nM MMP-2 inhibitor (444244, Calbiochem), and/or 2.5 μM ISP or SISP was used.
CM was harvested from 1×10^6 OPCs incubated on PLL, 1 μg/mL laminin, and 2 μg/mL aggrecan coated 6-well plates. OPCs were treated with vehicle, 2.5 μM ISP, or 2.5 μM SISP in conjunction with 10 μg/mL Exo1 (ab120292, Abcam), or 25 μM GM6001 (364205, Calbiochem) for 2 days at 37° C. […] CM of each cell-strained group was incubated with 20 μg/mL aggrecan and/or 10 μg/mL laminin for 2 hours in lmL Eppendorf tubes at 37° C. As a positive control, OPC media was incubated with aggrecan and incubated in the same fashion. Western blots were then performed as described below with incubation against CS-56 and/or laminin antibodies.

[1] = system: OPC conditioned media protease activity; experiment: Conditioned media protease activity assay (EnzChek, quenched casein); format: cell-based, mouse; conditions: OPCs treated with 2.5 μM ISP, vs vehicle and SISP
Method: Around 1×10^6 OPCs were plated per well on PLL, 1 μg/mL laminin, and 2 μg/mL aggrecan coated 6-well plates and treated with vehicle, 2.5 μM ISP or SISP for 2 days at 37° C. CM was collected, cell-strained, and placed on ice until assayed. ThermoFisher Protease Assay Kit (E66383, EnzChek, ThermoFisher) was used to assay protease activity. 1× of the EnzChek mixture was mixed 1:1 with the CM from each group and incubated at RT O/N with gentle shaking. 3 replicates were performed for each sample. Samples were analyzed using a spectrophotometer at 502/528 nm excitation and emission to assess cleaved and fluorescing casein. Fluorescence units reported have been blanked with EnzChek and cell culture media mixture.

[2] = 14 dpl, given together with ISP, vs LPC+ISP
[3] = 7 dpl, lesion epicenter, ISP started immediately

## CCCCCCCC/C=C\CCCCCCCC(=O)NO [OA-Hy, reference compound]
LPC-demyelinated mice; [2]
  CS56 immunoreactivity: concomitant increase in CS56 immunoreactivity
  Olig2+ OPCs in the lesion epicenter: decreased accumulation
LPC-demyelinated mice; 18 dpl, MMP-2 inhibition without ISP, vs vehicle control
  lesion volume, eriochrome cyanine myelin staining: increased the lesion volume
LPC-demyelinated mice; 18 dpl, given together with ISP
  effect on ISP-enhanced remyelination (lesion volume): attenuated the enhanced remyelinating effects of ISP
Aggrecan (CS56); 25 μM GM6001 or 100 nM OA-Hy with 2.5 μM ISP
  CS56 spot degradation: additionally rescued CS56 spot degradation
Aggrecan (CS56); Exo1 10 μg/mL, GM6001 25 μM or OA-Hy 100 nM with 2.5 μM ISP
  aggrecan GAG digestion (CS56 immunoblot): partially rescued

## GRKKRRQRRRCDMAEHMERLKANDSLKLSQEYESI [ISP]
LPC-demyelinated mice; 7 dpl vs vehicle
  Olig2+/Ki67+ cells: no differences
  percentage of Olig2+ OPCs in lesions: significantly increased
LPC-demyelinated mice; 7 dpl, ISP 20 μg/day subcutaneous from 1 day post LPC, vehicle 1.508±0.069
  lesion volume (LFB): 1.535±0.058 mm^3
LPC-demyelinated mice; 7 dpl, ISP started immediately upon LPC injection, 7 days
  CSPG expression (CS56, Cat301): significantly reduced
LPC-demyelinated mice; [3]
  MBP myelin protein expression vs control: no change
  activated microglia (Iba1) vs control: no change
  reactive astrocytes (GFAP) vs control: no change
LPC-demyelinated mice; 14 dpl
  MBP expression, western blot: increased expression of MBP
LPC-demyelinated mice; 14 dpl vs controls
  CSPGs (CS56 and Cat301) immunostaining: quicker reduction of CSPGs
LPC-demyelinated mice; 14 dpl, vehicle 1.035±0.06
  lesion volume (LFB): 0.613±0.043 mm^3
LPC-demyelinated mice; 21 dpl, vehicle 0.738±0.027
  lesion volume (LFB): 0.2±0.041 mm^3
LPC-demyelinated mice; LPC-injected animals, 14 dpl
  percentage of CC1+ oligodendrocytes in lesions: significantly enhanced
LPC-demyelinated mice; spinal cord, vs LPC vehicle
  MMP-2 expression in the LPC-injected site (immunohistochemistry, western blot): markedly enhanced
Aggrecan (CS56); 2.5 μM ISP, aggrecan 20 μg/mL
  CS56 immunoblot of aggrecan incubated with OPC CM: significant CS56 degradation
Aggrecan (CS56); CM of OPCs treated with 2.5 μM ISP, vs vehicle, SISP and no cell control
  CS56 expression of aggrecan/laminin spots: significantly reduced CS56 expression
Aggrecan (CS56); ISP at 2.5 and 5 μM doses vs control
  CS56 band, western blot: significant ISP-treated CS56 degradation
Aggrecan (CS56); varying doses of ISP, aggrecan 20 μg/mL, 2 hours
  aggrecan digestion, dependence on ISP dose (western blot): dose-dependent manner
[1]
  protease activity (fluorescence A.U.): increased protease activity

— patent publication US20200230205A1, “COMPOSITIONS AND METHODS FOR TREATING MYELIN DISORDERS” (CASE WESTERN RESERVE UNIVERSITY, priority 2017, published 2020)
